# Tested on: bacterial infection within the sample (sample 101, e.g. urine)
# Experiment: assay 200: antibiotic susceptibility of a bacterial infection by ATP bioluminescence
# Format: cell-based
# Description: To perform assay 200 to determine antibiotic susceptibility of a bacterial infection within the sample, a second test sample 204 and third test sample 205 may be obtained from sample 101 by applying 50 to 400 μL of first reagent 202 and 50 to 300 μL of culture medium 203 to 1 to 20 μL of sample 101 to create second test sample 204 and to 1 to 20 μL of sample 101 to create third test sample 205. First reagent 202 may include 10 to 100 mM of Tris Acetate as a buffer, 0.0001 to 0.1% of Benzethonium Chloride, and 0.5 to 4 Units/ml of Apyrase. First reagent 202 may cause non-bacterial ATP to be released and removed, in a manner similar to that as described herein. Culture medium 203 may include 50 to 300 μL of Tryptic Soy Broth. Culture medium 203 may be applied to second test sample 204 and third test sample 205 and may promote the growth and robustness of the bacterial population, in a manner similar to that described herein.
# First antibiotic 206 may be applied to third test sample 205. In this example, first antibiotic 206 may include 10 to 100 μg of Amoxicillin. Second test sample 204 and the third test sample 205 may then be incubated for ˜40 minutes at 37 degrees Celsius.
# After incubation, second reagent 207 (e.g., 100 to 500 μL) may be applied to second test sample 204 and third test sample 205. Second reagent 207 may include 10 to 100 mM of Tris Acetate as a buffer and 2 to 30 mg/L of Luciferase, 2 to 30 mg/L of Luciferin, and 0.1 to 0.5% of Chlorhexidine di-gluconate. […]
# A Berthold Junior Luminometer may be used to measure a first bioluminescent signal (and associated strength) from third test sample 205 and a second bioluminescent signal (and associated strength) from second test sample 204 (e.g., based on released ATP, etc.). In a manner similar to that described above, the strength associated with the first bioluminescent signal and/or the strength associated with the second bioluminescent signal may be proportional to the respective quantity and/or concentration of ATP and/or quantity of bacterial cells within third test sample 205 and/or second test sample 204, respectively. […] In this example, the strength of the first bioluminescent signal was measured to be 66,823 RLU's and the strength of the second bioluminescent signal was measured to be 62,535 RLU's. Thus, the quantity of bacteria cells in third test sample 205 was ˜62,000 cfu/ml and the quantity of bacteria cells in the second test sample 204 was ˜67,000 cfu/ml.
# In the event that the bacteria, within third test sample 205, are susceptible to first antibiotic 206, the quantity of bacterial cells in third test sample 205 may be less than the quantity of bacterial cells in second test sample 204. […]
structure (smiles),measurement,setting,value
CC1(C)S[C@@H]2[C@H](NC(=O)[C@H](N)c3ccc(O)cc3)C(=O)N2[C@H]1C(=O)O [Amoxicillin],susceptibility of the bacteria to the antibiotic,"10-100 μg, ΔL compared to second threshold >30% difference",may not be susceptible
same,"strength of the first bioluminescent signal (third test sample 205, with antibiotic)","10 to 100 μg antibiotic, incubated ~40 minutes at 37 degrees Celsius, Berthold Junior Luminometer, baseline second test sample 62,535 RLU's","66,823 RLU's"
same,quantity of bacteria cells in third test sample 205,"10 to 100 μg antibiotic, ~40 minutes at 37 degrees Celsius, baseline second test sample ~67,000 cfu/ml","~62,000 cfu/ml"
same,"ΔL, difference between first and second bioluminescent signal strength","antibiotic-treated vs baseline sample, second threshold >30% difference",7.5%

# Source: patent US20170175161A1, “RAPID DETERMINATION OF BACTERIAL SUSCEPTIBILITY TO AN […] THE POINT OF CARE” (Point of Care Diagnostics, LLC, priority 2014, published 2017)
